Data from paper PMC5908784, “Extracellular loops 2 and 3 of the calcitonin receptor selectively modify agonist binding and efficacy” (Biochemical Pharmacology, 2018).
Changes are numbered by the printed parent chain. Like-named read-outs stand apart in the source and are kept apart here. Where a SMILES comes first, the peptide text is derived from it. Bridges are numbered along the chain shown (N, C = ends).

How the values were obtained:
Test in all cases: IP1 accumulation
Assay type in all cases: cell-based
hCTR S364A = molecular target: T1, hCTR S364A (Homo sapiens, UniProt P30988, S364A); details: mean ± S.E.M.; for Emax: IP1 maximal response, SEM
T1 construct: c-Myc (N); expressed in transfected cells
T1 sequence (P30988 25-474 S364A): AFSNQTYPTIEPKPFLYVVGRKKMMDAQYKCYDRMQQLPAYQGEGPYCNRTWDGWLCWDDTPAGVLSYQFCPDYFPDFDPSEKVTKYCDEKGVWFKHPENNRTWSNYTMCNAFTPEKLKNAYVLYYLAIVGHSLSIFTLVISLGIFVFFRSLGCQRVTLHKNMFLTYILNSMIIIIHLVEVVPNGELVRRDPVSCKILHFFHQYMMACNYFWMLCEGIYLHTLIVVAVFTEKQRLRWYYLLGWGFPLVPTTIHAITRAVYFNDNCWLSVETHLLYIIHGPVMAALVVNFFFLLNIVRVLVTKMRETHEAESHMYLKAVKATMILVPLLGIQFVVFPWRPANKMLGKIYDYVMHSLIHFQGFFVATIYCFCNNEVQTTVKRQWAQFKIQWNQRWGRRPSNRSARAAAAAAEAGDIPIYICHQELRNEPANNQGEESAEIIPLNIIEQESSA
In short: (§1)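 Ligand-induced IP1 (60 min, LiCl) measured by HTRF; normalized to 100 μM ATP response.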

hCTR I371A = molecular target: T2, hCTR I371A (Homo sapiens, UniProt P30988, I371A); details: mean ± S.E.M.; for Emax: IP1 maximal response, SEM
T2 construct: c-Myc (N); expressed in transfected cells
T2 sequence (P30988 25-474 I371A): T1 sequence (P30988 25-474 S364A) with A340S, I347A
In short: as §1

hCTR F359A = molecular target: T3, hCTR F359A (Homo sapiens, UniProt P30988, F359A); details: for Emax: read-out: Emax (% WT), SEM
T3 construct: expressed in transfected cells
T3 sequence (P30988 25-474 F359A): T1 sequence (P30988 25-474 S364A) with F335A, A340S
In short: as §1

hCTR E294A = molecular target: T4, hCTR E294A (Homo sapiens, UniProt P30988, E294A); details: mean ± S.E.M.; for Emax: IP1 maximal response, SEM
T4 construct: c-Myc (N); expressed in transfected cells
T4 sequence (P30988 25-474 E294A): T1 sequence (P30988 25-474 S364A) with E270A, A340S
In short: as §1

hCTR G369A = molecular target: T5, hCTR G369A (Homo sapiens, UniProt P30988, G369A); details: mean ± S.E.M.; for Emax: IP1 maximal response, SEM
T5 construct: c-Myc (N); expressed in transfected cells
T5 sequence (P30988 25-474 G369A): T1 sequence (P30988 25-474 S364A) with A340S, G345A
In short: as §1

[1] = IP1, CV1-FlpIn cells, 60 min, LiCl

Question: How did the Emax (hCTR S364A) turn out when CC(C)C[C@H](NC(=O)[C@H](CCCCN)NC(=O)CNC(=O)[C@H](CC(C)C)NC(=O)[C@@H](NC(=O)[C@@H]1CSSC[C@H](N)C(=O)N[C@@H](CO)C(=O)N[C@@H](CC(N)=O)C(=O)N[C@@H](CC(C)C)C(=O)N[C@@H](CO)C(=O)N[C@@H]([C@@H](C)O)C(=O)N1)C(C)C)C(=O)N[C@@H](CO)C(=O)N[C@@H](CCC(N)=O)C(=O)N[C@@H](CCC(=O)O)C(=O)N[C@@H](CC(C)C)C(=O)N[C@@H](Cc1c[nH]cn1)C(=O)N[C@@H](CCCCN)C(=O)N[C@@H](CC(C)C)C(=O)N[C@@H](CCC(N)=O)C(=O)N[C@H](C(=O)N[C@@H](Cc1ccc(O)cc1)C(=O)N1CCC[C@H]1C(=O)N[C@@H](CCCNC(=N)N)C(=O)N[C@H](C(=O)N[C@@H](CC(N)=O)C(=O)N[C@H](C(=O)NCC(=O)N[C@@H](CO)C(=O)NCC(=O)N[C@H](C(=O)N1CCC[C@H]1C(N)=O)[C@@H](C)O)[C@@H](C)O)[C@@H](C)O)[C@@H](C)O [sCT] was run?
Answer: 87 ± 6%

Question: And the Emax (hCTR I371A)?
Answer: 31 ± 14%

Question: And the Emax (hCTR F359A)?
Answer: 125 ± 6%

Question: And the Emax (hCTR E294A)?
Answer: 84 ± 5%

Question: And the Emax (hCTR G369A)?
Answer: 97 ± 7%

Question: Which Emax (hCTR S364A) does the source give for CC[C@H](C)[C@H](NC(=O)[C@H](C)NC(=O)[C@@H](NC(=O)[C@H](CCC(N)=O)NC(=O)[C@@H]1CCCN1C(=O)[C@H](Cc1ccccc1)NC(=O)[C@@H](NC(=O)[C@H](Cc1c[nH]cn1)NC(=O)[C@H](Cc1ccccc1)NC(=O)[C@H](CCCCN)NC(=O)[C@H](CC(N)=O)NC(=O)[C@H](Cc1ccccc1)NC(=O)[C@H](CC(=O)O)NC(=O)[C@H](CCC(N)=O)NC(=O)[C@@H](NC(=O)[C@H](Cc1ccc(O)cc1)NC(=O)[C@@H](NC(=O)CNC(=O)[C@H](CC(C)C)NC(=O)[C@H](CCSC)NC(=O)[C@@H]1CSSC[C@H](N)C(=O)NCC(=O)N[C@@H](CC(N)=O)C(=O)N[C@@H](CC(C)C)C(=O)N[C@@H](CO)C(=O)N[C@@H]([C@@H](C)O)C(=O)N1)[C@@H](C)O)[C@@H](C)O)[C@@H](C)O)[C@@H](C)O)C(=O)NCC(=O)N[C@H](C(=O)NCC(=O)N[C@@H](C)C(=O)N1CCC[C@H]1C(N)=O)C(C)C [hCT] here?
Answer: 93 ± 8%

Question: What about the Emax (hCTR I371A) of the same molecule?
Answer: 42 ± 3%

Question: And the Emax (hCTR F359A)?
Answer: 101 ± 9%

Question: What about the Emax (hCTR E294A) of the same molecule?
Answer: 57 ± 6%

Question: And the Emax (hCTR G369A)?
Answer: 148 ± 10%

Question: With CSCC[C@H](NC(=O)CNC(=O)[C@H](CO)NC(=O)[C@H](Cc1ccccc1)NC(=O)[C@H](CCCNC(=N)N)NC(=O)[C@H](Cc1c[nH]cn1)NC(=O)[C@H](Cc1ccccc1)NC(=O)[C@H](CC(N)=O)NC(=O)[C@H](CC(N)=O)NC(=O)[C@H](CC(C)C)NC(=O)[C@H](CC(N)=O)NC(=O)[C@H](CCCNC(=N)N)NC(=O)[C@H](Cc1c[nH]c2ccccc12)NC(=O)[C@H](Cc1ccc(O)cc1)NC(=O)[C@H](C)NC(=O)[C@H](CO)NC(=O)[C@H](CC(C)C)NC(=O)[C@@H](NC(=O)[C@@H]1CSSC[C@H](N)C(=O)N[C@@H](CO)C(=O)N[C@@H](CC(N)=O)C(=O)N[C@@H](CC(C)C)C(=O)N[C@@H](CO)C(=O)N[C@@H]([C@@H](C)O)C(=O)N1)C(C)C)C(=O)NCC(=O)N[C@@H](Cc1ccccc1)C(=O)NCC(=O)N1CCC[C@H]1C(=O)N[C@@H](CCC(=O)O)C(=O)N[C@H](C(=O)N1CCC[C@H]1C(N)=O)[C@@H](C)O [pCT] (H-CSNLSTCVLSAYWRNLNNFHRFSGMGFGPETP-NH2; disulfide 1-7) as the molecule, how does the EC50 (hCTR S364A; [1]) read?
Answer: 6.92 nM

Question: And the Emax (hCTR S364A)?
Answer: 93 ± 6%

Question: And the EC50 (hCTR I371A; [1])?
Answer: 4.17 nM

Question: What about the Emax (hCTR I371A) of the same molecule?
Answer: 61 ± 6%

Question: And the EC50 (hCTR F359A; F359A, IP1, CV1-FlpIn cells, 60 min, LiCl, mean ± S.E.M.)?
Answer: 13.2 nM

Question: What about the Emax (hCTR F359A; F359A, IP1 maximal response, mean ± S.E.M.) of the same molecule?
Answer: 77 ± 6%

Question: What about the EC50 (hCTR E294A; [1]) of the same molecule?
Answer: 1.29 nM

Question: And the Emax (hCTR E294A)?
Answer: 119 ± 8%

Question: What about the EC50 (hCTR G369A; [1]) of the same molecule?
Answer: 7.59 nM

Question: And the Emax (hCTR G369A)?
Answer: 110 ± 6%
